Data: patent US6114334A, “Piperazine derivatives as therapeutic agents” (Knoll Aktiengesellschaft, priority 1995, dated 2000)

Tests used:
D2 dopamine receptors = D2 dopamine receptors (Rattus norvegicus, UniProt P61169); experiment: inhibition of tritiated (S)-sulpiride binding to D2 dopamine receptors in vitro; design: species or system rat (male Charles River CD, striatal tissue); conditions: rat striatum, tritiated (S)-sulpiride 1 nM, 4° C., 40 min
α2A-adrenoceptors = molecular target: T1, α2A-adrenoceptors (Homo sapiens, UniProt P08913); experiment: inhibition of tritiated RX 821002 binding to α2A-adrenoceptors in vitro; design: species or system human (cerebral cortex post-mortem); conditions: 10^-6 M, human cerebral cortex, [3H]RX 821002; read-out: % displacement at 10^-6 M, α2A
T1 construct: Human cerebral cortex obtained at post-mortem; from tissue; host or cells: human cerebral cortex, post-mortem
T1 sequence (P08913 1-465): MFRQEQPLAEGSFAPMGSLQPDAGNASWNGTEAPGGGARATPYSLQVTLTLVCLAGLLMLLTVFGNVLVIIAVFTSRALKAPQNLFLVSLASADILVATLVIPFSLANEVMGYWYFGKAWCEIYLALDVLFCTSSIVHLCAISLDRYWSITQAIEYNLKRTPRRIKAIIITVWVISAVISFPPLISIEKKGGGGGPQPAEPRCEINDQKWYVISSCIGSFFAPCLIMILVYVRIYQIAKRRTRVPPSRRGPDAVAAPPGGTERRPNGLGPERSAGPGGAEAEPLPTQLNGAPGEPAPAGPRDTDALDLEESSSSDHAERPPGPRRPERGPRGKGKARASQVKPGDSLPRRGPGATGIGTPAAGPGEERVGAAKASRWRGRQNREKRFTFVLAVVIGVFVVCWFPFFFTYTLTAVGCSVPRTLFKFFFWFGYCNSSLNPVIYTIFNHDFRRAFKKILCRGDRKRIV
Method in brief: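 Post-mortem human cerebral cortex membranes (10 mg wet tissue/tube; 50 mM Tris-HCl pH 7.5, ascorbate, EDTA) incubated 75 min at 0 °C with [3H]RX 821002 (0.2 nM as added) and compound; filtration, scintillation counting. Compounds displacing ≥50% at 10^-6 M tested at 10^-11–10^-3 M; IC50 converted to Ki.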

α1-adrenoceptors = experiment: inhibition of 7-methoxy-[3H]prazosin binding to α1-adrenoceptors in vitro; design: species or system rat (male Charles River CD, whole cortical tissue); conditions: rat whole cortex, 7-methoxy-[3H]prazosin 0.1 nM, 30° C., 30 min
Method in brief: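 Male CD rat cortical membranes in 50 mM Tris-HCl pH 7.6 were incubated 30 min at 30 °C with 7-methoxy-[3H]prazosin (0.1 nM as added), with 5 μM phentolamine (as added) defining non-specific binding, then filtered and counted. Compounds were tested at 10^-6 M for % displacement or at 10^-11–10^-3 M for IC50, and Ki was derived from IC50, ligand concentration and KD.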

α2D-adrenoceptors = molecular target: T2, α2D-adrenoceptors (Rattus norvegicus, UniProt P22909); experiment: inhibition of tritiated idazoxan binding to α2D-adrenoceptors in vitro; design: species or system rat (male Charles River CD, frontal cortical tissue); conditions: 10^-6 M, rat frontal cortex, [3H]idazoxan; read-out: % displacement at 10^-6 M, α2D
T2 sequence (P22909 1-465): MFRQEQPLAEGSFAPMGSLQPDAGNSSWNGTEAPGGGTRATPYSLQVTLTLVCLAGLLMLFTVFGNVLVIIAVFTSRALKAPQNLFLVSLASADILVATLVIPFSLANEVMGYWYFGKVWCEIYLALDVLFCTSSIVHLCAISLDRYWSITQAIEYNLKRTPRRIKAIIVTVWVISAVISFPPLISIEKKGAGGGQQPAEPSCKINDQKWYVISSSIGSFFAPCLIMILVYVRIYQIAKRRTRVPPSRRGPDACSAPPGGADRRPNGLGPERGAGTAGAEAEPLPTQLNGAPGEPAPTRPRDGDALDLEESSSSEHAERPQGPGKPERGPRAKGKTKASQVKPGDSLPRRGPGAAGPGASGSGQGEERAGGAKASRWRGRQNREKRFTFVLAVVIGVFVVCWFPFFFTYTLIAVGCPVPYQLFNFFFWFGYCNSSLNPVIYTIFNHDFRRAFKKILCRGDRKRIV

5-HT1A receptors = molecular target: T3, 5-HT1A receptors (Rattus norvegicus, UniProt P19327); experiment: inhibition of [3H]8-OH-DPAT binding to 5-HT1A receptors in vitro; design: species or system rat (male Sprague-Dawley, hippocampal tissue); conditions: rat hippocampus, [3H]8-OH-DPAT 2 nM, 25° C., 30 min
T3 sequence (P19327 1-422): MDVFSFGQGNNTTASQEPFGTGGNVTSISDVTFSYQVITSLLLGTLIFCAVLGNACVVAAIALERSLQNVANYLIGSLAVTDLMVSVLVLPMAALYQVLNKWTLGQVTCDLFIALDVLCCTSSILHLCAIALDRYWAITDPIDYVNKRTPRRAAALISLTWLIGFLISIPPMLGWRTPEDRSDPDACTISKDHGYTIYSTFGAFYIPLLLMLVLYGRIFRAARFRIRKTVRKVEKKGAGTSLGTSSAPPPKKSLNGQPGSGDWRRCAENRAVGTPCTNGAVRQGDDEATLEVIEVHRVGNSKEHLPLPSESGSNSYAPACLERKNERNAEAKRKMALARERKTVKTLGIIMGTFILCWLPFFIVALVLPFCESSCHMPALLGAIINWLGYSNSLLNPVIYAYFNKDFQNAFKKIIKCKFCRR
Protocol: Hippocampal tissue from the brains of male Sprague-Dawley rats (Charles River; weight range 150-250 g) was homogenised in ice-cold 50 mM Tris-HCl buffer (pH 7.7 when measured at 25° C., 1:40 w/v) and centrifuged at 30,000 g at 4° C. for 10 minutes. The pellet was rehomogenised in the same buffer, incubated at 37° C. for 10 minutes and centrifuged at 30,000 g at 4° C. for 10 minutes. The final pellet was resuspended in 50 mM Tris-HCl buffer (pH 7.7) containing 4 mM CaCl2. 0.1% L-ascorbic acid and 10 μM pargyline hydrochloride (equivalent to 6.25 mg wet weight of tissue/ml) and used immediately in the binding assay. Aliquots (400 μl; equivalent to 2.5 mg wet weight of tissue/tube) of this suspension were added to tubes containing the ligand (50 μl; 2 nM) and distilled water (50 μl; total binding) or 5-HT (50 μl; 10 μM; non-specific binding) or test compound (50 μl; at a single concentration of 10^-6 M or at 10 concentrations ranging from 10^-11 -10^-3 M). The ligand was [^3 H]8-hydroxy-2-(dipropylamino)tetralin ([^3 H]8-OH-DPAT) and the mixture was incubated at 25° C. for 30 minutes before the incubation was terminated by rapid filtration.
The filters were washed with ice-cold Tris-HCl buffer and dried. The filters were punched out into vials, scintillation fluid added and radioactivity determined by liquid scintillation counting. The percentage displacement of specific binding of the tritiated ligand was calculated for the single concentration (10^-6 M) of test compound. Displacement curves were then produced for those compounds which displaced ≥50% of specific binding of the tritiated ligand at 10^-6 M using a range of concentrations of the compound. The concentration which gave 50% inhibition of specific binding (IC50) was obtained from the curve. The inhibition coefficient Ki was then calculated using the formula [formula] in which [ligand] is the concentration of the tritiated ligand used and KD is the equilibrium dissociation constant for the ligand.

Sequence of D2 dopamine receptors (P61169 whole entry): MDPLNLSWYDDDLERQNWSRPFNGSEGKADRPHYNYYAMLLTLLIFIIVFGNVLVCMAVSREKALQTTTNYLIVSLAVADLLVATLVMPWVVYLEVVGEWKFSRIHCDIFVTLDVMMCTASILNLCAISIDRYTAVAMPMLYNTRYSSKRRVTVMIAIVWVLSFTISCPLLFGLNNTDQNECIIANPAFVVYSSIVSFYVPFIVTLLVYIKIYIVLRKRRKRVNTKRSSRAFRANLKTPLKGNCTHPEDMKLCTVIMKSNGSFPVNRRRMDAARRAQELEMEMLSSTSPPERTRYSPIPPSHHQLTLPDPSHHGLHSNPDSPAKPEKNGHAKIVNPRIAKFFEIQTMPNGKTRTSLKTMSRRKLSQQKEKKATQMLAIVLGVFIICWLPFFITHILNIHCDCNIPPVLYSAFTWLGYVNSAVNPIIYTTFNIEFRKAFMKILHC

- Ki (D2 dopamine receptors): 345 nM
- inhibition at 1 µM (α2A-adrenoceptors): 76%
- Ki (α1-adrenoceptors): > 500 nM
- inhibition at 1 µM (α2D-adrenoceptors): 54%
- Ki (5-HT1A receptors): 15 nM
SMILES: C=CCN1C(=O)C(C)(CN2CCN(c3cccc4c3OCCO4)CC2)N=C1c1cccnc1 (centres unmarked) [Example 44, 1-allyl-4-[4-(1,4-benzodioxan-5-yl)piperazin-1-ylmethyl]-4-methyl-2-(3-pyridyl)-2-imidazolin-5-one]
